This note sets out measurements from patent US20100029604A1, “ANTIBACTERIAL COMBINATION AND ITS USE” (priority 2007, published 2010).

One test deals with C. freundii AmpC. Nature of the test: Synergy MIC, inhibitor at 4 μg/mL (Example 4). Format: cell-based, Citrobacter freundii. To be noted: class C, inhibitor constant 4 μg/mL. Here is the method:
(§1) The in vitro activities of the antibiotics were determined by the broth microdilution method and agar dilution technique as recommended by CLSI guidelines. The MIC experiments were performed in duplicate in 96-well microtiter plates using MHB. Serial twofold dilutions of each antibiotic either alone or in combination with a constant amount (4 μg/mL) of a β-lactamase inhibitor were prepared in MHBII broth. A sterile pipette tip was used to mix the contents of each well (one tip was used going from the low to the high concentration in the same column). The bacterial suspension with final inoculum 10^5 CFU/mL was transferred to the test medium containing the antibacterial substances by a multipoint inoculator (Dynatech, Chantilly, Va., USA). The plates were then incubated at 35° C. for 24 h.
(§2) Following procedures identical to those described in Example 3, representative compound of Formula (I) was tested for its ability to enhance antibiotic efficacy against Class C β-lactamase positive bacterial strains that are highly resistant to β-lactam antibiotics. Class C enzymes included AmpC β-lactamases of Enterobacter Cloacae and Citrobacter freundii.

A further test relates to E. cloacae AmpC. Description: Synergy MIC, inhibitor at 4 μg/mL (Example 4). In kind it is cell-based, Enterobacter Cloacae. The conditions noted are these: class C, inhibitor constant 4 μg/mL. Here is the method:
as §1, §2

The subject of another test is Escherichia coli TEM-9. Description: MIC, characterised β-lactamase producing strain (Example 5, Tables 5-7). Format: cell-based. Here is the method:
(§3) The MIC experiments were performed in duplicate in 96-well microtiter plates using CAMHB. […] The bacterial suspension with final inoculum 10^5 CFU/mL was transferred to the test medium containing the antibacterial substances. In each well of a 96-well microtiter plate was combined 50 μL of bacterial inoculum, 50 μL of antibiotic dilutions (or media for determination of the MIC of the antibiotic in the absence of test compound). Each plate included 4 wells with no bacterial inoculum (negative control) and 4 wells with no test compound and no antibiotic (positive control). The plates were incubated at 35° C. for 24 h. Purity check and colony counts on each inoculum suspension was performed to ensure that the final inoculum concentration routinely obtained closely approximates 5×10^5 CFU/mL. In addition the assay is routinely monitored by testing standard antibiotics and ensuring that MIC values are within the recommended ranges for the respective strains.
(§4) This test permits comparisons to be made between bacterial growth in the presence of antibiotic alone and bacterial growth in the presence of both an antibiotic and a novel (test) compound.

For the next test, the system named is Escherichia coli OXA-3. Described as above. In kind it is cell-based. The protocol:
(§5) The MIC experiments were performed in duplicate in 96-well microtiter plates using CAMHB. Serial twofold dilutions of each antibiotic either alone or in combination with constant concentration ratio of a β-lactamase inhibitor (2:1) were prepared in CAMHB. The bacterial suspension with final inoculum 10^5 CFU/mL was transferred to the test medium containing the antibacterial substances. In each well of a 96-well microtiter plate was combined 50 μL of bacterial inoculum, 50 μL of antibiotic dilutions (or media for determination of the MIC of the antibiotic in the absence of test compound). Each plate included 4 wells with no bacterial inoculum (negative control) and 4 wells with no test compound and no antibiotic (positive control). The plates were incubated at 35° C. for 24 h. Purity check and colony counts on each inoculum suspension was performed to ensure that the final inoculum concentration routinely obtained closely approximates 5×10^5 CFU/mL. In addition the assay is routinely monitored by testing standard antibiotics and ensuring that MIC values are within the recommended ranges for the respective strains.
as §4

For a further test, the system named is Escherichia coli SHV-2A. The test is described as above. Format: cell-based. The protocol:
as §5, §4

For another test, the system named is Escherichia coli SHV-3. The test is described as above. Format: cell-based. The protocol: as §5, §4
The next test concerns Escherichia coli TEM-35. The test is described as above. Format: cell-based. The protocol:
as §5, §4

Test [1] relates to Klebsiella oxytoca K1 highperproduced. The description is as above. Format: cell-based. The protocol:
as §5, §4

Test [2] relates to Klebsiella pneumoniae TEM-1, SHV-5. Described as above. In kind it is cell-based. Here is the method:
as §5, §4

For the next test, the system named is Escherichia coli CMY-2. The test is described as above. In kind it is cell-based. Here is the method: as §3, §4
The test system of another test is Escherichia coli CMY-7. Described as above. Format: cell-based. The protocol:
as §3, §4

The test system of the next test is Escherichia coli FOX-1. Described as above. In kind it is cell-based. Here is the method: as §3, §4
A further test has as its system Escherichia coli FOX-2. Described as above. In kind it is cell-based. Here is the method:
as §3, §4

A further test concerns Escherichia coli OXA-1. Described as above. In kind it is cell-based. The protocol: as §3, §4
Another test deals with Escherichia coli OXA-7. The test is described as above. Format: cell-based. Here is the method: as §3, §4
The subject of the next test is Escherichia coli SHV-1. The test is described as above. In kind it is cell-based. The protocol: as §3, §4
For another test, the system named is Escherichia coli SHV-4. Described as above. Format: cell-based. The protocol: as §3, §4
The test system of a further test is Escherichia coli TEM-21. The description is as above. In kind it is cell-based. Here is the method:
as §3, §4

Another test relates to Escherichia coli TEM-36. Described as above. Format: cell-based. The protocol:
as §3, §4

For another test, the system named is Escherichia coli TEM-8. Described as above. Format: cell-based. The protocol:
as §3, §4

The test system of test [3] is Klebsiella pneumoniae CMY-2. The test is described as above. In kind it is cell-based. The protocol: as §3, §4
For test [4], the system named is Klebsiella pneumoniae LAT-2. Described as above. Format: cell-based. The protocol:
as §3, §4

For test [5], the system named is Klebsiella pneumoniae TEM-10. Described as above. In kind it is cell-based. The protocol: as §3, §4
Test [6] has as its system Pseudomonas aeruginosa OXA-6. The description is as above. Format: cell-based. Here is the method:
as §3, §4

In test [7] the test system is Pseudomonas aeruginosa PSE-3. Described as above. In kind it is cell-based. Here is the method:
as §3, §4

The mark [8] stands for this setting: Table 7, combination at constant concentration ratio (2:1).
Where [9] appears, read: Table 6, LK-157 at constant 4 μg/mL in combination.

For orientation: MIC means the least concentration at which growth counts as inhibited. Consider `CO/N=C(\C(=O)N[C@@H]1C(=O)N2C(C(=O)[O-])=C(C[N+]3(C)CCCC3)CS[C@H]12)c1csc(N)n1` [cefepime], for which the MIC with C. freundii AmpC turned out to be 0.8 µg/mL; in the test on E. cloacae AmpC (first listed), 0.8 µg/mL; in the test with E. cloacae AmpC (second listed), 1.6 µg/mL; with E. cloacae AmpC (third listed), 1.6 µg/mL; with Escherichia coli TEM-9 (Escherichia coli TEM-9, functional group 2be, LK-157 in combination constant 4 μg/mL), 128 µg/mL; in the test with Escherichia coli OXA-3 (Escherichia coli OXA-3, functional group 2d, LK-157 in combination constant 4 μg/mL), 0.125 µg/mL. Further, the MIC in the test with Escherichia coli SHV-2A (functional group 2be, LK-157 in combination constant 4 μg/mL) amounted to 16 µg/mL; in the test on Escherichia coli SHV-3 (Escherichia coli SHV-3, functional group 2be, LK-157 in combination constant 4 μg/mL), 4 µg/mL; in the test on Escherichia coli TEM-35 (Escherichia coli TEM-35, functional group 2br, LK-157 in combination constant 4 μg/mL), 0.125 µg/mL; in test [1] (Klebsiella oxytoca K1 highperproduced, functional group 2be, first listed (r47), LK-157 in combination constant 4 μg/mL), 1 µg/mL; in test [1] (Klebsiella oxytoca K1 highperproduced, functional group 2be, second listed (r48), LK-157 in combination constant 4 μg/mL), 4 µg/mL; in test [2] (Klebsiella pneumoniae TEM-1, SHV-5, functional group 2b, 2e, LK-157 in combination constant 4 μg/mL) it was 16 µg/mL.
Turning to `CC(C)(O/N=C(\C(=O)N[C@@H]1C(=O)N2C(C(=O)[O-])=C(C[n+]3ccccc3)CS[C@H]12)c1csc(N)n1)C(=O)O` [ceftazidime], the MIC in the test on C. freundii AmpC is > 25.6 µg/mL; in the test on E. cloacae AmpC (first listed) it was > 25.6 µg/mL; in the test with E. cloacae AmpC (second listed), > 25.6 µg/mL; with E. cloacae AmpC (third listed), > 25.6 µg/mL; with Escherichia coli CMY-2 (setting [8]), “≧128 μg/mL”; with Escherichia coli CMY-7 (setting [8]), “≧128 μg/mL”. Moreover, the MIC is 8 µg/mL with Escherichia coli FOX-1 (setting [8]); “≧128 μg/mL” in the test on Escherichia coli FOX-2 (setting [8]); 0.25 µg/mL in the test with Escherichia coli OXA-1 (setting [8]); 0.5 µg/mL in the test on Escherichia coli OXA-7 (setting [8]); 0.25 µg/mL with Escherichia coli SHV-1 (setting [8]); “≧128 μg/mL” with Escherichia coli SHV-4 (setting [8]). In addition, the MIC with Escherichia coli TEM-21 (setting [8]) is 16 µg/mL; in the test on Escherichia coli TEM-36 (setting [8]) it was 0.5 µg/mL; in the test with Escherichia coli TEM-8 (setting [8]), “≧128 μg/mL”; in the test on Escherichia coli TEM-9 (Table 7, Escherichia coli TEM-9, combination at constant concentration ratio (2:1)) it was “≧128 μg/mL”; in test [3] (setting [8]) it was 64 µg/mL; in test [4] (setting [8]) it was “≧128 μg/mL”. Besides, the MIC result in test [5] (setting [8]) is “≧128 μg/mL”; in test [6] (setting [8]), 2 µg/mL; in test [7] (setting [8]), 4 µg/mL; in the test with Escherichia coli OXA-3 (Table 7, Escherichia coli OXA-3, combination at constant concentration ratio (2:1)), 0.5 µg/mL; in the test on Escherichia coli SHV-2A (setting [8]), 4 µg/mL; in the test with Escherichia coli SHV-3 (Table 7, Escherichia coli SHV-3, combination at constant concentration ratio (2:1)), 2 µg/mL. Also, the MIC with Escherichia coli TEM-35 (Table 7, Escherichia coli TEM-35, combination at constant concentration ratio (2:1)) is 0.25 µg/mL; in [1] (Table 7, Klebsiella oxytoca K1 hyperproduced, first listed strain, combination at constant concentration ratio (2:1)), 1 µg/mL; in [1] (Table 7, Klebsiella oxytoca K1 hyperproduced, second listed strain, combination at constant concentration ratio (2:1)), 0.5 µg/mL.
As to `CO/N=C(\C(=O)N[C@@H]1C(=O)N2C(C(=O)O)=C(COC(C)=O)CS[C@H]12)c1csc(N)n1` [cefotaxime], the MIC was > 25.6 µg/mL with C. freundii AmpC; > 25.6 µg/mL in the test with E. cloacae AmpC (first listed); > 25.6 µg/mL with E. cloacae AmpC (second listed); > 25.6 µg/mL in the test on E. cloacae AmpC (third listed); 32 µg/mL with Escherichia coli CMY-2 (setting [9]); 32 µg/mL in the test with Escherichia coli CMY-7 (setting [9]). The MIC in the test with Escherichia coli FOX-1 (setting [9]) came out at 2 µg/mL; with Escherichia coli FOX-2 (setting [9]) it was 64 µg/mL; in the test on Escherichia coli OXA-1 (setting [9]) it was 0.5 µg/mL; in the test on Escherichia coli OXA-7 (setting [9]), 0.25 µg/mL; in the test with Escherichia coli SHV-1 (setting [9]), 0.063 µg/mL; in the test with Escherichia coli SHV-4 (setting [9]), 16 µg/mL. Further, the MIC with Escherichia coli TEM-21 (setting [9]) turned out to be 32 µg/mL; in the test with Escherichia coli TEM-36 (setting [9]), 0.25 µg/mL; in the test with Escherichia coli TEM-8 (setting [9]) it was 4 µg/mL; in test [3] (setting [9]) it was 16 µg/mL; in [4] (setting [9]) it was 16 µg/mL; in test [5] (setting [9]) it was 0.5 µg/mL. Moreover, the MIC in test [6] (setting [9]) was 16 µg/mL; in [7] (setting [9]), 16 µg/mL; in the test on Escherichia coli OXA-3 (Table 6, Escherichia coli OXA-3, LK-157 at constant 4 μg/mL in combination), 0.063 µg/mL; with Escherichia coli SHV-2A (setting [9]), 8 µg/mL; in the test with Escherichia coli SHV-3 (Table 6, Escherichia coli SHV-3, LK-157 at constant 4 μg/mL in combination), 32 µg/mL; with Escherichia coli TEM-35 (Table 6, Escherichia coli TEM-35, LK-157 at constant 4 μg/mL in combination), 0.031 µg/mL. For the same molecule, the MIC in test [1] (Table 6, Klebsiella oxytoca K1 highperproduced, first listed strain, LK-157 at constant 4 μg/mL in combination) was found to be 1 µg/mL; in [1] (Table 6, Klebsiella oxytoca K1 highperproduced, second listed strain, LK-157 at constant 4 μg/mL in combination), 1 µg/mL; in test [2] (Table 6, Klebsiella pneumoniae TEM-1, SHV-5, LK-157 at constant 4 μg/mL in combination), 32 µg/mL.
